According to PubChem BioAssay (NCI):
Values joined by “and” are separate entries in the source; they are usually repeats but may differ in a detail not shown here. Identical values can stand only once.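 How tested: cells in 96-well plates exposed to compound for 48 hours at five concentrations. GI50 = concentration required for 50% inhibition of growth. TGI is the concentration that stops growth completely.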

Columns and labels:
Test in all cases: NCI anticancer screen, dose series, 48 h
RPMI-8226 leukemia = test system: RPMI-8226 leukemia
HCT-15 colon = test system: HCT-15 colon
RXF 393 renal = test system: RXF 393 renal
UO-31 renal = test system: UO-31 renal
ACHN renal = test system: ACHN renal
SK-OV-3 ovarian = test system: SK-OV-3 ovarian
TK-10 renal = test system: TK-10 renal
786-0 renal = test system: 786-0 renal
COLO 205 colon = test system: COLO 205 colon
MDA-MB-231 breast = test system: MDA-MB-231 breast

Compound | GI50 (RPMI-8226 leukemia) | TGI (RPMI-8226 leukemia) [µM] | GI50 (HCT-15 colon) [µM] | TGI (HCT-15 colon) [µM] | GI50 (RXF 393 renal) [µM] | TGI (RXF 393 renal) [µM] | GI50 (UO-31 renal) | TGI (UO-31 renal) [µM] | GI50 (ACHN renal) [µM] | TGI (ACHN renal) [µM] | GI50 (SK-OV-3 ovarian) [µM] | TGI (SK-OV-3 ovarian) [µM] | GI50 (TK-10 renal) | TGI (TK-10 renal) [µM] | GI50 (786-0 renal) [µM] | TGI (786-0 renal) [µM] | GI50 (COLO 205 colon) [µM] | TGI (COLO 205 colon) [µM] | GI50 (MDA-MB-231 breast) [µM] | TGI (MDA-MB-231 breast) [µM]
COc1cc([C@@H]2C[C@H]2c2cc(SC)n[nH]2)cc(OC)c1OC | 12.6 µM | 37.2 | 22.8 | 80.2 | 0.0483 | 5.7 | 23 µM | > 100 | 30.3 | > 100 | 17.4 | 65.2 | 22.5 µM | 52.5 | 18 | 44.6 | 20.5 | 70 | 12.1 | 33.2
CCOc1cccc(-c2nc(N)nc(Nc3ccccc3SSc3ccccc3Nc3nc(N)nc(-c4cccc(OCC)c4)n3)n2)c1 | 2.18 µM | 6.89 | 2.18 | > 100 | 2.86 | 8.75 | 1.68 µM | 3.16 | 2.14 | 5.8 | 4.87 | > 100 | 6.26 µM | 86.8 | 5.03 | 69.7 | 35.8 | > 100 | 3.72 | 27
CCCCCCCCCCCCCCCCC(=O)O.CCCCCCCCCCCCCCCCCC(=O)O.CCCCCCCCCCCCCCCCCC(=O)O.CCCCCCCCCCCCCCCCCC(=O)O.CCCCCCCCCCCCCCCCCC(=O)O.CO[CH-]OC12COC1CC(O)C1(C)C(O)C(OC(C)O)C3=C(C)C(OC(=O)C(O)C([NH-])c4ccccc4)CC(O)(C(OC(=O)c4ccccc4)C21)C3(C)C.[Cu+].[Zn].[Zn].[Zn].[Zn].[Zn] (configuration not stated) | 0.00776 µM | > 25 | 0.222 | > 25 |  | 0.21 | 0.487 µM | > 14.5 | 0.272 | > 25 | 0.0203 | 5.3 | 0.258 µM | > 25 | 0.0595 | > 10.9 | 0.00844 | > 25 | 0.0135 | 4.48
CCN(CC)C1CCC(Nc2c(C(C)=O)cnc3ccc(-c4ccc(O)c(Cl)c4)cc23)CC1 (configuration not stated) | 0.393 µM | 2.1 | 0.301 | 9.62 | 0.615 | 2.28 | 0.425 µM | > 36.8 | 0.485 | > 37.8 | 0.931 | > 44.5 | 3.52 µM | > 100 | 1.64 | 44.8 | 10.7 | 40.7 | 0.741 | 12.5
COc1cc2c(cc1OC)C1Cc3cc(OC)c(OC)cc3C(C2)N1C | 17.1 µM and > 100 µM | > 100 |  | > 100 |  | > 75 | 19.7 µM and 40.5 µM | > 100 |  | > 100 |  | > 75 | 36.3 µM and > 100 µM | > 100 |  | > 100 |  | > 75 |  | > 75
COc1ccc(C2C=C(c3ccc4c(c3)OCO4)Oc3c2c(=O)oc2ccccc32)cc1OC (configuration not stated) |  | 5.29 |  | > 100 |  | > 45.5 |  | > 100 |  | > 100 |  | > 69.6 |  | > 78.1 |  | > 100 |  | > 100 |  | > 100
NCOC(=O)Cc1ccc(Br)cc1 |  | > 100 |  | > 100 |  | > 100 |  | > 100 |  | > 100 |  | > 100 |  | > 100 |  | > 100 |  | > 100 |  | > 100
Cc1ccc(Cl)c(Nc2ccccc2C(=O)O)c1Cl | 26.6 µM | 80.5 | 22.7 | 54.2 | 19.8 | 46.8 | 19.3 µM | 45.5 | 32.7 | > 100 | 26 | 65 | 29.2 µM | 86 | 23 | 64.3 | 22.2 | 43 | 32.1 | > 100
